In the experiment the target is T1, Cbl-b (Homo sapiens, UniProt Q13191).
T1 construct: biotin (biotinylated protein)
The experiment can be described thus: Cbl-b probe displacement HTRF binding assay. To be noted: 0.4 nM Cbl-b, 150 nM BODIPY probe. A digest of the protocol:
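Compound competes with BODIPY probe (150 nM) for biotinylated Cbl-b (0.4 nM) in HEPES/NaCl/Triton/TCEP/BSA buffer; 60 min preincubation, 15 min with probe, room temperature. Tb-streptavidin HTRF read; % displacement vs DMSO and no-protein controls, IC50 from four-parameter fit.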
(TR-FRET usually uses a lanthanide donor and a delayed reading to cut background.)

One may read the IC50 as the concentration at which inhibition is half-maximal. High values mean weaker potency in that assay, low ones greater potency in that assay.

T1 sequence (Q13191 whole entry, species assumed): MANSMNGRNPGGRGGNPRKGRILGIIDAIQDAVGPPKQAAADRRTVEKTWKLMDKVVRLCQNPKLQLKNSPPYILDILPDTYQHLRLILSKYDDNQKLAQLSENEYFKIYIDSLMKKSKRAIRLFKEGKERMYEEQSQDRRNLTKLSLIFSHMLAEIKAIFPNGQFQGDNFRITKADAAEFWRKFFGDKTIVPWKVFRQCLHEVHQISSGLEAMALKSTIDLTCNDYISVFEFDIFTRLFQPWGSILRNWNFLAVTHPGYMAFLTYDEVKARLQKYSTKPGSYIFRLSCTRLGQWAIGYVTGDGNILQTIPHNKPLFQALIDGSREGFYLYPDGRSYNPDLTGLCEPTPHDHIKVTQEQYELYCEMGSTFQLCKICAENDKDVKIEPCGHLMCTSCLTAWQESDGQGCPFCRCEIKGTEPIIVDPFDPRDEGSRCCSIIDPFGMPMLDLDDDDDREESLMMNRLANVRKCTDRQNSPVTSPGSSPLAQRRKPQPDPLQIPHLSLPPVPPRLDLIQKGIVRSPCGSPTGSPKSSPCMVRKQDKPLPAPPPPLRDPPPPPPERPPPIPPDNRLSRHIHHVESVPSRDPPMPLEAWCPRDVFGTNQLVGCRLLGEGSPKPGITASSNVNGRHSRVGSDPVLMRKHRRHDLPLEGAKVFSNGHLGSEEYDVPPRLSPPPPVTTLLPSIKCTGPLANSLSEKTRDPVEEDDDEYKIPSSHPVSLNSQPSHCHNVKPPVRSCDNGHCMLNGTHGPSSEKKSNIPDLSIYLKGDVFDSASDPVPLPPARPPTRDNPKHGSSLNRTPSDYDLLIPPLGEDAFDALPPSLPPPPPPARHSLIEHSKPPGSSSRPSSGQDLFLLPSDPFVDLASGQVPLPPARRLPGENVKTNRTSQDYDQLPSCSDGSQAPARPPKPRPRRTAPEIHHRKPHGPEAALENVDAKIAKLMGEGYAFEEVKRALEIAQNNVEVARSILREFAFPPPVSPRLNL

`COc1ccc(-c2cc(NC(=O)c3cc(CN[C@@H](C)C4CCC4)cn(C4CC4)c3=O)nc(OC(C)C)c2)c(C(=O)N2CC(F)(F)C2)c1` [Example 276]: the IC50 is below 0.1 µM.

Take `Cc1ccc(-c2cc(NC(=O)c3cc(CN[C@@H](C)C4CCC4)cn(C4CC4)c3=O)nc(OC(C)C)c2)c(C(=O)N2CC(F)C2)c1` [Example 277]: the IC50 was below 0.1 µM.

In turn, `CC(C)Nc1cc(-c2ccc(OC(F)F)cc2C(=O)N2CC(F)C2)cc(NC(=O)c2cc(CN[C@@H](C)C3CCC3)cn(C)c2=O)n1` [Example 278] gave an IC50 below 0.1 µM.

For the compound `CC(C)Oc1cc(-c2ccc(C#N)cc2C(=O)N2CC(F)C2)cc(NC(=O)c2cc(CNC[C@@H]3CCCO3)cn(C)c2=O)n1` [Example 279], the IC50 was below 0.1 µM.

Regarding `CC(C)Oc1cc(-c2ccc(OC(F)F)cc2C(=O)N2CC(F)C2)cc(NC(=O)c2cc(CNC[C@@H]3CCCO3)cn(C3CC3)c2=O)n1` [Example 280], the IC50 is below 0.1 µM.

Compound `COc1ccc(-c2cc(NC(=O)c3cc(CNCC(C)C)cn(C4CC4)c3=O)nc(OC(C)C)c2)c(C(=O)N2CC(F)C2)c1` [Example 281] had a half-maximal inhibitory concentration (IC50) below 0.1 µM.

For the compound `CCOc1cc(-c2ccc(OC(F)F)cc2C(=O)N2CC(F)C2)cc(NC(=O)c2cc(CNC[C@@H]3CCCO3)cn(C)c2=O)n1` [Example 282], the IC50 was below 0.1 µM.

With `COc1ccc(-c2cc(NC(=O)c3cc(CNC[C@@H]4CCCO4)cn(C4CC4)c3=O)nc(OC(C)C)c2)c(C(=O)N2CC(F)C2)c1` [Example 283], the IC50 was below 0.1 µM.

The compound `COc1ccc(-c2cc(NC(=O)c3cc(CNCC(C)C)cn(C4CC4)c3=O)nc(C3CC3)c2)c(C(=O)N2CC(F)C2)c1` [Example 284] gave a half-maximal inhibitory concentration (IC50) below 0.1 µM.

Turning to `COCCNCc1cc(C(=O)Nc2cc(-c3ccc(Cl)cc3C(=O)N3CC(F)C3)cc(C3CC3)n2)c(=O)n(C2CC2)c1` [Example 285], the IC50 is below 0.1 µM.

`CCOc1cc(-c2ccc(OC(F)F)cc2C(=O)N2CC(F)C2)cc(NC(=O)c2cc(CNCC(C)C)cn(C)c2=O)n1` [Example 286] gave an IC50 below 0.1 µM.

`Cc1ccc(-c2cc(NC(=O)c3cc(CNCC(C)C)cn(C4CC4)c3=O)nc(OC(C)C)c2)c(C(=O)N2CC(F)C2)c1` [Example 287] returned an IC50 below 0.1 µM.

Consider `COc1ccc(-c2cc(NC(=O)c3cc(CNC[C@@H]4CCCO4)cn(C4CC4)c3=O)nc(C3CC3)c2)c(C(=O)N2CC(F)C2)c1` [Example 288], for which the IC50 was below 0.1 µM.

`COc1ccc(-c2cc(NC(=O)c3cc(CNCC(C)C)cn(C4CC4)c3=O)nc(OC(C)C)c2)c(C(=O)N2CC(F)(F)C2)c1` [Example 289] registered an IC50 below 0.1 µM.

Turning to `CO[C@@H](C)CNCc1cc(C(=O)Nc2cc(-c3ccc(C)cc3C(=O)N3CC(F)C3)cc(OC(C)C)n2)c(=O)n(C2CC2)c1` [Example 290], the IC50 is below 0.1 µM.

Consider `COc1ccc(-c2cc(NC(=O)c3cc(CN[C@@H](C)C4CC4)cn(C4CC4)c3=O)nc(C3CC3)c2)c(C(=O)N2CC(F)C2)c1` [Example 291], for which the half-maximal inhibitory concentration (IC50) was below 0.1 µM.

The compound `COc1ccc(-c2cc(NC(=O)c3cc(CN[C@@H](C)C4CCC4)cn(C)c3=O)nc(OC(C)C)c2)c(C(=O)N2CC(F)(F)C2)c1` [Example 292] had an IC50 below 0.1 µM.

Compound `CC(C)Oc1cc(-c2ccc(OC(F)F)cc2C(=O)N2CC(F)(F)C2)cc(NC(=O)c2cc(CN[C@@H](C)C(C)C)cn(C3CC3)c2=O)n1` [Example 293] had an IC50 below 0.1 µM.

Compound `CC(C)CNCc1cc(C(=O)Nc2cc(-c3ccc(OC(F)F)cc3C(=O)N3CC(F)C3)cc(OC(C)C)n2)c(=O)n(C)c1` [Example 294] showed an IC50 below 0.1 µM.

Regarding `COc1ccc(-c2cc(NC(=O)c3cc(CN[C@@H](C)C4CCC4)cn(C4CC4)c3=O)nc(C3CC3)c2)c(C(=O)N2CC(F)(F)C2)c1` [Example 295], the IC50 was below 0.1 µM.

On to `COc1ccc(-c2cc(NC(=O)c3cc(CN[C@@H](C)C4CCC4)cn(C)c3=O)nc(C3CC3)c2)c(C(=O)N2CC(F)C2)c1` [Example 296], for which the IC50 is below 0.1 µM.

On to `CC(C)Oc1cc(-c2ccc(OC(F)F)cc2C(=O)N2CC(F)C2)cc(NC(=O)c2cc(CNC[C@@H]3CCCO3)cn(C)c2=O)n1` [Example 297], for which the concentration for half-maximal inhibition (IC50) is below 0.1 µM.

As to `COCCNCc1cc(C(=O)Nc2cc(-c3ccc(Cl)cc3C(=O)N3CCC3)cc(C3CC3)n2)c(=O)n(C2CC2)c1` [Example 298], the IC50 is below 0.1 µM.

For the compound `CC(C)Nc1cc(-c2ccc(OC(F)F)cc2C(=O)N2CC(F)C2)cc(NC(=O)c2cc(CNC[C@@H]3CCCO3)cn(C)c2=O)n1` [Example 299], the IC50 is below 0.1 µM.

For the compound `CO[C@@H](C)CNCc1cc(C(=O)Nc2cc(-c3ccc(C(F)F)cc3C(=O)N3CC(F)(F)C3)cc(C3CC3)n2)c(=O)n(C2CC2)c1` [Example 300], the IC50 was below 0.1 µM.

Compound `COc1ccc(-c2cc(NC(=O)c3cc(CNC[C@H](C)OC)cn(C)c3=O)nc(C3CC3)c2)c(C(=O)N2CC(F)C2)c1` [Example 301] returned a concentration for half-maximal inhibition (IC50) below 0.1 µM.

Regarding `COc1ccc(-c2cc(NC(=O)c3cc(CNC[C@H](C)OC)cn(C)c3=O)nc(OC(C)C)c2)c(C(=O)N2CC(F)C2)c1` [Example 302], the IC50 was below 0.1 µM.

As for `COCCNCc1cc(C(=O)Nc2cc(-c3ccc(Cl)cc3C(=O)N3CC(C#N)C3)cc(C3CC3)n2)c(=O)n(C2CC2)c1` [Example 303], the IC50 is below 0.1 µM.

In turn, `Cc1ccc(-c2cc(NC(=O)c3cc(CNC[C@@H]4CCCO4)cn(C4CC4)c3=O)nc(C3CC3)c2)c(C(=O)N2CC(F)(F)C2)c1` [Example 304] registered an IC50 below 0.1 µM.

As for `COc1ccc(-c2cc(NC(=O)c3cc(CNC[C@H](C)OC)cn(C4CC4)c3=O)nc(OC(C)C)c2)c(C(=O)N2CC(F)(F)C2)c1` [Example 305], the IC50 is below 0.1 µM.

The compound `COCCNCc1cc(C(=O)Nc2cc(-c3ccc(Cl)cc3C(=O)N3CC4(COC4)C3)cc(C3CC3)n2)c(=O)n(C2CC2)c1` [Example 306] showed an IC50 below 0.1 µM.

`COCCNCc1cc(C(=O)Nc2cc(-c3ccc(Cl)cc3C(=O)N(C)C)cc(C3CC3)n2)c(=O)n(C2CC2)c1` [Example 307]: the IC50 is below 0.1 µM.

For `COc1ccc(-c2cc(NC(=O)c3cc(CNC[C@H](C)OC)cn(C)c3=O)nc(OC(C)C)c2)c(C(=O)N2CC(F)(F)C2)c1` [Example 308], the IC50 is below 0.1 µM.

On to `Cc1ccc(-c2cc(NC(=O)c3cc(CNC[C@@H]4CCCO4)cn(C4CC4)c3=O)nc(OC(C)C)c2)c(C(=O)N2CC(F)C2)c1` [Example 309], for which the IC50 was below 0.1 µM.

`CC(C)CNCc1cc(C(=O)Nc2cc(-c3ccc(C(F)F)cc3C(=O)N3CC(F)C3)cc(OC(C)C)n2)c(=O)n(C2CC2)c1` [Example 310] showed an IC50 below 0.1 µM.

For the compound `COc1ccc(-c2cc(NC(=O)c3cc(CNC[C@@H]4CCCO4)cn(C4CC4)c3=O)nc(OC(C)C)c2)c(C(=O)N2CC(F)(F)C2)c1` [Example 311], the IC50 was below 0.1 µM.

In turn, `COc1ccc(-c2cc(NC(=O)c3cc(CN[C@@H](C)C4CC4)cn(C)c3=O)nc(C3CC3)c2)c(C(=O)N2CC(F)C2)c1` [Example 312] had an IC50 below 0.1 µM.

Compound `COc1ccc(-c2cc(NC(=O)c3cc(CN[C@@H](C)[C@H](C)OC)cn(C)c3=O)nc(C3CC3)c2)c(C(=O)N2CC(F)C2)c1` [Example 313] gave an IC50 below 0.1 µM.

In turn, `CO[C@@H](C)CNCc1cc(C(=O)Nc2cc(-c3ccc(Cl)cc3C(=O)N3CC[C@@H]3C)cc(C3CC3)n2)c(=O)n(C2CC2)c1` [Example 314] displayed an IC50 below 0.1 µM.

On to `COc1ccc(-c2cc(NC(=O)c3cc(CNCC(C)C)cn(C)c3=O)nc(C3CC3)c2)c(C(=O)N2CC(F)C2)c1` [Example 315], for which the IC50 is below 0.1 µM.

Consider `CCNc1cc(-c2ccc(OC(F)F)cc2C(=O)N2CC(F)C2)cc(NC(=O)c2cc(CNC[C@@H]3CCCO3)cn(C)c2=O)n1` [Example 316], for which the IC50 was below 0.1 µM.

Compound `COc1ccc(-c2cc(NC(=O)c3cc(CNCC(C)C)cn(C)c3=O)nc(OC(C)C)c2)c(C(=O)N2CC(F)C2)c1` [Example 317] returned an IC50 below 0.1 µM.

The compound `COc1ccc(-c2cc(NC(=O)c3cc(CN[C@@H](CO)C4CCC4)cn(C4CC4)c3=O)nc(OC(C)C)c2)c(C(=O)N2CC(F)C2)c1` [Example 318] yielded an IC50 below 0.1 µM.

As for `COc1ccc(-c2cc(NC(=O)c3cc(CNC[C@@H]4CCCO4)cn(C)c3=O)nc(C3CC3)c2)c(C(=O)N2CC(F)C2)c1` [Example 319], the IC50 is below 0.1 µM.

For `Cc1ccc(-c2cc(NC(=O)c3cc(CNC[C@@H]4CCCO4)cn(C)c3=O)nc(OC(C)C)c2)c(C(=O)N2CC(F)C2)c1` [Example 320], the IC50 is below 0.1 µM.

Compound `CO[C@@H](C)CNCc1cc(C(=O)Nc2cc(-c3ccc(OC(F)F)cc3C(=O)N3CC(F)(F)C3)cc(C3CC3)n2)c(=O)n(C2CC2)c1` [Example 321] yielded an IC50 below 0.1 µM.

In the case of `CC(C)CNCc1cc(C(=O)Nc2cc(-c3ccc(OC(F)F)cc3C(=O)N3CC(F)(F)C3)cc(C3CC3)n2)c(=O)n(C2CC2)c1` [Example 322], the IC50 was below 0.1 µM.

With `C[C@H](N[C@H](C)c1cc(C(=O)Nc2cc(-c3ccc(C#N)cc3C(=O)N3CC(F)(F)C3)cc(C3CC3)n2)c(=O)n(C2CC2)c1)C1CC1` [Example 323], the IC50 was below 0.1 µM.

On to `CO[C@@H](C)CNC(C)c1cc(C(=O)Nc2cc(-c3ccc(C#N)cc3C(=O)N3CC(F)(F)C3)cc(C3CC3)n2)c(=O)n(C2CC2)c1` (some centres unmarked) [Example 324], for which the IC50 was below 0.1 µM.

Consider `O=C(Nc1cc(-c2ccc(OC(F)F)cc2C(=O)N2CC(F)(F)C2)cc(C2CC2)n1)c1cc(CNC[C@@H]2CCCO2)cn(C2CC2)c1=O` [Example 325], for which the IC50 is below 0.1 µM.

For `CC(C)CNC(C)c1cc(C(=O)Nc2cc(-c3ccc(C#N)cc3C(=O)N3CC(F)(F)C3)cc(C3CC3)n2)c(=O)n(C2CC2)c1` (centres unmarked) [Example 326], the IC50 is below 0.1 µM.

For the compound `C[C@H](NCc1cc(C(=O)Nc2cc(-c3ccc(OC(F)F)cc3C(=O)N3CC(F)(F)C3)cc(C3CC3)n2)c(=O)n(C2CC2)c1)C1CCC1` [Example 327], the IC50 is below 0.1 µM.

The compound `C[C@H](N[C@@H](C)C1CC1)c1cc(C(=O)Nc2cc(-c3ccc(C#N)cc3C(=O)N3CC(F)(F)C3)cc(C3CC3)n2)c(=O)n(C2CC2)c1` [Example 328] showed an IC50 below 0.1 µM.

For the origin of these results see patent publication US20260116868A1 (Arcus Biosciences, Inc., priority 2023, published 2026).
